Measured values taken from patent US11013750B2, “Methods for treating and preventing nociceptive pain” (Aurin Biotech Inc., priority 2017, dated 2021).

Experiments:
[1] = tested on: SH-SY5Y human neuroblastoma cells; assay: CH50 type analysis of inhibition of C3B cleavage, LDH release end point; type: cell-based; details: SH-SY5Y cells with undiluted human serum, 37° C. for 3 h, read-out: concentration to inhibit cell lysis by 50% (IC 50)
Procedure: To investigate efficacy of DAS, ATA, AQA and AHA and to inhibit C3B cleavage in SH-SY5Y human neuroblastoma cells, a CH50 type analysis was performed. Lactate dehydrogenase (LDH) release from dead cells was the end point. Reaction mixtures were: SH-SY5Y cells (10^5 cells in 1 ml DMEM/F-12 medium), 250 μL of undiluted human serum and 250 μL of DAS (3 μM), ATA (5 μM), AQA (5 μM), or AHA (5 μM). Mixtures were incubated at 37° C. for 3 h. 100 μl of cell free reaction mixtures were transferred to 96 well plates where they were mixed with a solution containing 15 μl lactate (36 mg/ml in PBS) plus 15 μl p-iodonitrotetrazolium violet (INT, 2 mg/ml in PBS). The enzymatic reaction was started by the addition of 15 μl of NAD^+/diaphorase solution (3 mg/ml NAD^+; 2.3 mg solid/ml diaphorase). After 1 h, optical densities were measured with a Model 450 microplate reader (Bio-Rad Laboratories, Richmond, Calif.) using a 490-nm filter. The amount of LDH released was expressed as a percentage of the value obtained in comparative wells where cells were 100% lysed by 0.1% Triton X-100.
Cell lysis was concentration dependent for each of the components investigated.

[2] = tested on: C5a formation (C5 convertase); assay: Blockade of C5a formation, western blotting; type: cell-based; details: SH-SY5Y cells, 10% human serum, zymosan 100 μg/ml, C1 inhibitor 5 μg/ml, 37° C. 1 h
Procedure: To verify that each of the inhibitors was acting by inhibiting formation of C5 convertase, western blotting experiments were carried out. Results are shown in illustrated in FIG. 4. SH-SY5Y human neuroblastoma cells (2×10^5 cells in 1 ml DMEM/F-12 medium including 10% human serum) were incubated with zymosan (100 μg/ml) in 24 well plates at 37° C. for 1 h with or without DAS (3 μM), ATA (5 μM), AQA (5 μM), or AHA (5 μM). To inhibit any classical pathway activation, C1 inhibitor (5 μg/ml) was added. Supernatants were obtained by centrifugation at 4000 g for 30 min through 30 K-filters (Amicon® Ultra-15, 30,000 NMWL, Millipore, Billerica, Mass.). The filtrates were dried and added to the loading buffer for SDS-PAGE (50-mM Tris (pH 6.8), 0.1% SDS, 0.1% bromophenol blue, and 10% glycerol). Proteins were separated in 10% polyacrylamide gels at 70V for 6 h. The proteins were then transferred to polyvinylidene difluoride (PVDF) membranes (Bio-Rad, CA) at 30 mA for 2 hours. After washing with PBS-T, the membranes were treated with a mouse monoclonal C5/C5a antibody (Abcam, Cambridge Mass., 1/2000) for 15 hours at 4° C. The membranes were then treated with an appropriate HRP-conjugated anti-mouse IgG (A3682, 1/3,000; Sigma) for 3 hours at room temperature. The bands were visualized with an enhanced chemiluminescent system and exposure to photographic film (Hyperfilm ECL; Amersham Pharmacia Biotech, Little Chalfont, UK).

| Molecule | IC50 [1] | C5a formation (western blot) ([2]; 5 μM) | C5a formation (western blot) ([2]; 3 μM) |
| --- | --- | --- | --- |
| O=C(O)C1=CC(=C(c2ccc(O)c(C(=O)O)c2)c2ccc(O)c(C(=O)O)c2)C=CC1=O [ATA, aurin tricarboxylic acid] | 0.55 µM | – | – |
| aurin quadracarboxylic acid [AQA] | 0.522 µM | C5a was no longer formed | – |
| aurin hexacarboxylic acid [AHA] | 0.534 µM | C5a was no longer formed | – |
| CC(=O)Oc1ccc(Cc2ccc(OC(C)=O)c(C(=O)O)c2)cc1C(=O)O [DAS, 5,5′-methylenebis(2-acetoxybenzoic) acid] | 0.109 µM | – | C5a was no longer formed |
